Paper PMC8445441, “Elucidating the mechanism by which synthetic helper peptides sensitize Pseudomonas aeruginosa to multiple antibiotics” (PLoS Pathogens, 2021)
Values joined by “and” are separate entries in the source; they are usually repeats but may differ in a detail not shown here. Equal entries are not always repeated. Where two headings read alike, the source gives them in different places.

Assays:
P. aeruginosa PAO1 = experiment: microbe, parasite or virus in culture; conditions: for MIC: Pseudomonas aeruginosa, PAO1, 18 h
Experimental: (§1) The MIC tests were performed in triplicate using broth microdilution in accordance with Clinical and Laboratory Standards Institute (CLSI) recommendations (http://iacld.ir/DL/public/CLSI-2018-M100-S28.pdf). Briefly, drugs were two-fold diluted in MHB and mixed with an equal volume of bacterial suspensions containing approximately 1 × 10^6 CFU/mL in 96-well microliter plate. After 18 h incubation at 37 °C, the MIC values were defined as the lowest concentrations of antibiotics with no visible growth of bacteria. […] Otherwise, 1/4 MIC of the peptide was used in the combination. […] If needed, membrane compounds PG, PE, PC, CL or LPS, or membrane stabilizers MgCl2 or CaCl2, or efflux pumps inhibitor PAβN were added to the broth medium to clarify the effect of other substances on the synergy between peptide and antibiotics. All the tests were performed in triplicate.
The fractional inhibitory concentration (FIC) indices were calculated using the previously described formula FICI = FICa + FICb = MICac/MICa + MICbc/MICb. The FICI was interpreted according to EUCAST [65] as follows: synergistic, FICI≤0.5; additive, 0.5<FICI≤1; indifferent, 1<FICI<2; antagonistic, FICI ≥2. For the FICI calculations, twice the highest concentration tested was used in the cases where the MIC was not reached.

[1] = system: clinical P. aeruginosa isolates; experiment: microbe, parasite or virus in culture; conditions: for MIC: Pseudomonas aeruginosa, 18 h
Experimental: The bacterial strains, primers and plasmids used in this study are listed in S5 Table. […] Bacteria were cultured in LB medium or cation-adjusted Muller-Hinton broth (CA-MHB) at 37 °C with agitation at 220 rpm. All the antibiotics and chemical compounds used in this study were purchased from Sigma-Aldrich.
as §1

[2] = read-out: MICa: the MIC of antibiotics
[3] = S3 Table, PAO1, antibiotic + 2 μM D-11
[4] = S3 Table, PAO1, antibiotic + 4 μM D-11
[5] = read-out: Antibiotic sensibility (MIC) of clinical P. aeruginosa isolate AUMC-Pa-1
[6] = read-out: Antibiotic sensibility (MIC) of clinical P. aeruginosa isolate AUMC-Pa-2
[7] = read-out: Antibiotic sensibility (MIC) of clinical P. aeruginosa isolate AUMC-Pa-3
[8] = read-out: Antibiotic sensibility (MIC) of clinical P. aeruginosa isolate AUMC-Pa-4
[9] = read-out: Antibiotic sensibility (MIC) of clinical P. aeruginosa isolate AUMC-Pa-5
[10] = read-out: Antibiotic sensibility (MIC) of clinical P. aeruginosa isolate AUMC-Pa-6
[11] = read-out: Antibiotic sensibility (MIC) of clinical P. aeruginosa isolate HM-214
[12] = read-out: Antibiotic sensibility (MIC) of clinical P. aeruginosa isolate NR-31040
[13] = read-out: Antibiotic sensibility (MIC) of clinical P. aeruginosa isolate NR-31041
[14] = S3 Table, antibiotic alone, PAO1
[15] = read-out: Antibiotic sensibility (MIC) of clinical P. aeruginosa isolate AUMC-Pa-1, strain AUMC-Pa-1, antibiotic alone
[16] = read-out: Antibiotic sensibility (MIC) of clinical P. aeruginosa isolate AUMC-Pa-2, strain AUMC-Pa-2, antibiotic alone
[17] = read-out: Antibiotic sensibility (MIC) of clinical P. aeruginosa isolate AUMC-Pa-3, strain AUMC-Pa-3, antibiotic alone
[18] = read-out: Antibiotic sensibility (MIC) of clinical P. aeruginosa isolate AUMC-Pa-4, strain AUMC-Pa-4, antibiotic alone
[19] = read-out: Antibiotic sensibility (MIC) of clinical P. aeruginosa isolate AUMC-Pa-5, strain AUMC-Pa-5, antibiotic alone
[20] = read-out: Antibiotic sensibility (MIC) of clinical P. aeruginosa isolate AUMC-Pa-6, strain AUMC-Pa-6, antibiotic alone
[21] = read-out: Antibiotic sensibility (MIC) of clinical P. aeruginosa isolate HM-214, strain HM-214, antibiotic alone
[22] = read-out: Antibiotic sensibility (MIC) of clinical P. aeruginosa isolate NR-31040, strain NR-31040, antibiotic alone
[23] = read-out: Antibiotic sensibility (MIC) of clinical P. aeruginosa isolate NR-31041, strain NR-31041, antibiotic alone

MICac: the MIC for the antibiotic in the combination (P. aeruginosa PAO1; S3 Table, PAO1, with 2 μM D-11)	MICac: the MIC for the antibiotic in the combination (P. aeruginosa PAO1; S3 Table, PAO1, with 4 μM D-11)	MICa: the MIC of antibiotics (P. aeruginosa PAO1; [14])	MIC [1, 15] [µM]	MIC [1, 16] [µM]	MIC [1, 17] [µM]	MIC [1, 18] [µM]	MIC [1, 19] [µM]	MIC [1, 20] [µM]	MIC [1, 21] [µM]	MIC [1, 22] [µM]	MIC [1, 23] [µM]	SMILES	MIC (P. aeruginosa PAO1; [2]) [µM]	FICI (P. aeruginosa PAO1; [3])	FICI (P. aeruginosa PAO1; [4])	MIC [1, 5] [µM]	MIC [1, 6] [µM]	MIC [1, 7] [µM]	MIC [1, 8] [µM]	MIC [1, 9] [µM]	other results
2 µM	2 µM	1 µM	0.5	0.25	0.0625	0.5	0.5	2	1	32	32	CNC(C)C1CCC(N)C(OC2C(N)CC(N)C(OC3OCC(C)(O)C(NC)C3O)C2O)O1 (stereo not shown) [Gentamicin]		2.063	2.125						
128 µM	128 µM	64 µM										NC[C@H]1O[C@H](O[C@H]2[C@H](O)[C@@H](O[C@H]3O[C@H](CO)[C@@H](O)[C@H](N)[C@H]3O)[C@H](N)C[C@@H]2N)[C@H](O)[C@@H](O)[C@@H]1O [Kanamycin]		2.063	2.125						Antibiotic sensibility (MIC) of clinical P. aeruginosa isolate AUMC-Pa-1 ([1]; strain AUMC-Pa-1, antibiotic alone): 64 µM; Antibiotic sensibility (MIC) of clinical P. aeruginosa isolate AUMC-Pa-2 ([1]; strain AUMC-Pa-2, antibiotic alone): 16 µM; Antibiotic sensibility (MIC) of clinical P. aeruginosa isolate AUMC-Pa-3 ([1]; strain AUMC-Pa-3, antibiotic alone): 32 µM; Antibiotic sensibility (MIC) of clinical P. aeruginosa isolate AUMC-Pa-4 ([1]; strain AUMC-Pa-4, antibiotic alone): 32 µM; Antibiotic sensibility (MIC) of clinical P. aeruginosa isolate AUMC-Pa-5 ([1]; strain AUMC-Pa-5, antibiotic alone): 32 µM; Antibiotic sensibility (MIC) of clinical P. aeruginosa isolate AUMC-Pa-6 ([1]; strain AUMC-Pa-6, antibiotic alone): 32 µM; Antibiotic sensibility (MIC) of clinical P. aeruginosa isolate HM-214 ([1]; strain HM-214, antibiotic alone): 128 µM; Antibiotic sensibility (MIC) of clinical P. aeruginosa isolate NR-31040 ([1]; strain NR-31040, antibiotic alone): 128 µM; Antibiotic sensibility (MIC) of clinical P. aeruginosa isolate NR-31041 ([1]; strain NR-31041, antibiotic alone): 128 µM
>128/>128 μM	>128/>128 μM		> 128	> 128	> 128	> 128	> 128	> 128	> 128	> 128	> 128	CC(=O)NC[C@H]1CN(c2ccc(N3CCOCC3)c(F)c2)C(=O)O1 [Linezolid]		1.063	1.125						MIC (P. aeruginosa PAO1; read-out: MICa: the MIC of antibiotics, S3 Table, antibiotic alone, PAO1): > 128 µM
												CN(C)C(=O)C(CCN1CCC(O)(c2ccc(Cl)cc2)CC1)(c1ccccc1)c1ccccc1 [Loperamide]	> 128			> 128	> 128	> 128	> 128	> 128	FICI (P. aeruginosa PAO1): 1.063 and 1.125; MICac: the MIC for the antibiotic in the combination (P. aeruginosa PAO1): >128/>128 μM; MIC [1, 10]: > 128 µM; MIC [1, 11]: > 128 µM; MIC [1, 12]: > 128 µM; MIC [1, 13]: > 128 µM
64/64 μM	64/64 μM	64/64 μM	16	8	128	8	8	16	128	> 128	> 128	[H]/N=C(/N)N[C@H]1[C@H](O)[C@@H](O)[C@H](O[C@@H]2O[C@@H](C)[C@](O)(C=O)[C@H]2O[C@@H]2O[C@@H](CO)[C@H](O)[C@@H](O)[C@@H]2NC)[C@@H](N/C(N)=N\[H])[C@@H]1O [Streptomycin]		1.063	1.125						

SMILES	MICac: the MIC for the antibiotic in the combination (P. aeruginosa PAO1; S3 Table, PAO1, with 2 μM D-11)	MICac: the MIC for the antibiotic in the combination (P. aeruginosa PAO1; S3 Table, PAO1, with 4 μM D-11)	MICa: the MIC of antibiotics (P. aeruginosa PAO1; [14])	MIC [1, 15] [µM]	MIC [1, 16] [µM]	MIC [1, 17] [µM]	MIC [1, 18] [µM]	MIC [1, 19] [µM]	MIC [1, 20] [µM]	MIC [1, 21] [µM]	MIC [1, 22] [µM]	MIC [1, 23] [µM]	MIC (P. aeruginosa PAO1; [2]) [µM]	FICI (P. aeruginosa PAO1; [3])	FICI (P. aeruginosa PAO1; [4])	MIC [1, 5] [µM]	MIC [1, 6] [µM]	MIC [1, 7] [µM]	MIC [1, 8] [µM]	MIC [1, 9] [µM]	other results
CCCCc1ccc(C(=O)O)nc1 [Fusaric Acid]	>128/>128 μM	>128/>128 μM											> 128	1.063	1.125	> 128	> 128	> 128	> 128	> 128	MIC [1, 10]: > 128 µM; MIC [1, 11]: > 128 µM; MIC [1, 12]: > 128 µM; MIC [1, 13]: > 128 µM
